Test results as given in ChEMBL document CHEMBL2396620, “Synthesis and biological evaluation of novel benzoxazinyl-oxazolidinones as potential antibacterial agents” (2013).
≈ marks a conversion by molar mass, not a printed value.

Experiments:
Type in all cases: functional
Enterococcus faecalis [1] = experiment: Antibacterial activity against Enterococcus faecalis assessed as growth inhibition after 16 hrs by agar dilution method
Streptococcus pneumoniae [2] = experiment: Antibacterial activity against penicillin-resistant Streptococcus pneumoniae assessed as growth inhibition after 16 hrs by agar dilution method
[3] = tested on: Staphylococcus epidermidis; experiment: Antibacterial activity against methicillin-resistant Staphylococcus epidermidis assessed as growth inhibition after 16 hrs by agar dilution method
[4] = tested on: Staphylococcus epidermidis; experiment: Antibacterial activity against methicillin-sensitive Staphylococcus epidermidis assessed as growth inhibition after 16 hrs by agar dilution method
Staphylococcus aureus [5] = experiment: Antibacterial activity against methicillin-resistant Staphylococcus aureus assessed as growth inhibition after 16 hrs by agar dilution method
Staphylococcus aureus [6] = experiment: Antibacterial activity against methicillin-sensitive Staphylococcus aureus assessed as growth inhibition after 16 hrs by agar dilution method
Enterococcus faecalis [7] = experiment: Ratio of linezolid MIC to compound MIC for Enterococcus faecalis
[8] = tested on: Staphylococcus epidermidis; experiment: Ratio of linezolid MIC to compound MIC for methicillin-sensitive Staphylococcus epidermidis
Staphylococcus aureus [9] = experiment: Ratio of linezolid MIC to compound MIC for methicillin-sensitive Staphylococcus aureus
Streptococcus pneumoniae [10] = experiment: Ratio of linezolid MIC to compound MIC for penicillin-resistant Streptococcus pneumoniae

Row | Compound | MIC (Enterococcus faecalis [1]) [µg/mL] | MIC (Streptococcus pneumoniae [2]) [µg/mL] | MIC [3] [µg/mL] | MIC [4] [µg/mL] | MIC (Staphylococcus aureus [5]) [µg/mL] | MIC (Staphylococcus aureus [6]) [µg/mL] | Ratio (Enterococcus faecalis [7]) | Ratio [8] | Ratio (Staphylococcus aureus [9]) | Ratio (Streptococcus pneumoniae [10])
1 | O=C1O[C@@H](Cn2ccnn2)[C@@H]2COc3cc(-c4ccc(Cn5ccnn5)nc4)ccc3N12 | 4 (≈ 9.29 µM) | 2 (≈ 4.65 µM) | 1 (≈ 2.32 µM) | 1 (≈ 2.32 µM) | 1 (≈ 2.32 µM) | 2 (≈ 4.65 µM) |  |  |  | 
2 | N#Cc1ccc(-c2ccc3c(c2)OC[C@H]2[C@H](C(N)=O)OC(=O)N32)cn1 | > 32 | > 32 |  | > 32 |  | > 32 |  |  |  | 
3 | Cc1nc(-c2ccc(-c3ccc4c(c3)OC[C@H]3[C@H](C(N)=O)OC(=O)N43)cn2)no1 | > 32 | > 32 |  | > 32 |  | > 32 |  |  |  | 
4 | NC(=O)[C@@H]1OC(=O)N2c3ccc(-c4ccc(-n5ccoc5=O)nc4)cc3OC[C@@H]12 | > 32 | > 32 | > 32 | > 32 | > 32 | > 32 |  |  |  | 
5 | NC(=O)[C@@H]1OC(=O)N2c3ccc(-c4ccc(Cn5cncn5)nc4)cc3OC[C@@H]12 | > 32 | > 32 | > 32 | > 32 | > 32 | > 32 |  |  |  | 
6 | CN1C[C@@H](c2ccc(-c3ccc4c(c3)OC[C@H]3[C@H](Cn5ccnn5)OC(=O)N43)cn2)OC1=O | 2 (≈ 4.46 µM) | 0.25 (≈ 0.557 µM) | 1 (≈ 2.23 µM) | 0.5 (≈ 1.11 µM) | 1 (≈ 2.23 µM) | 0.5 (≈ 1.11 µM) |  |  |  | 
7 | O=C1O[C@@H](Cn2ccnn2)[C@@H]2COc3cc(-c4ccc(CO)nc4)ccc3N12 | 4 (≈ 10.5 µM) | 2 (≈ 5.27 µM) | 1 (≈ 2.64 µM) | 1 (≈ 2.64 µM) | 1 (≈ 2.64 µM) | 2 (≈ 5.27 µM) |  |  |  | 
8 | CC(O)c1ccc(-c2ccc3c(c2)OC[C@H]2[C@H](Cn4ccnn4)OC(=O)N32)cn1 (some centres not stated) | 2 (≈ 5.08 µM) | 0.5 (≈ 1.27 µM) | 1 (≈ 2.54 µM) | 1 (≈ 2.54 µM) | 1 (≈ 2.54 µM) | 1 (≈ 2.54 µM) |  |  |  | 
9 | CC(=O)c1ccc(-c2ccc3c(c2)OC[C@H]2[C@H](Cn4ccnn4)OC(=O)N32)cn1 | 2 (≈ 5.11 µM) | 0.25 (≈ 0.639 µM) | 1 (≈ 2.56 µM) | 0.5 (≈ 1.28 µM) | 0.5 (≈ 1.28 µM) | 0.5 (≈ 1.28 µM) |  |  |  | 
10 | CCO/N=C(\C)c1ccc(-c2ccc3c(c2)OC[C@H]2[C@H](Cn4ccnn4)OC(=O)N32)cn1 | > 32 | > 32 |  | > 32 |  | > 32 |  |  |  | 
11 | C/C(=N\OC(C)C)c1ccc(-c2ccc3c(c2)OC[C@H]2[C@H](Cn4ccnn4)OC(=O)N32)cn1 | > 32 | > 32 |  | > 32 |  | > 32 |  |  |  | 
12 | O=C1O[C@@H](Cn2ccnn2)[C@@H]2COc3cc(-c4ccc(Cn5cncn5)nc4)ccc3N12 | 1 (≈ 2.32 µM) | 2 (≈ 4.65 µM) | 0.5 (≈ 1.16 µM) | 0.5 (≈ 1.16 µM) | 0.5 (≈ 1.16 µM) | 0.5 (≈ 1.16 µM) | 2 | 2 | 2 | 
13 | O=C1O[C@@H](Cn2ccnn2)[C@@H]2COc3cc(-c4ccc(Cn5ncnn5)nc4)ccc3N12 | 2 (≈ 4.64 µM) | 2 (≈ 4.64 µM) | 1 (≈ 2.32 µM) | 0.5 (≈ 1.16 µM) | 1 (≈ 2.32 µM) | 1 (≈ 2.32 µM) |  |  |  | 
14 | O=C1O[C@@H](Cn2ccnn2)[C@@H]2COc3cc(-c4ccc(Cn5cnnn5)nc4)ccc3N12 | 4 (≈ 9.27 µM) | 4 (≈ 9.27 µM) | 1 (≈ 2.32 µM) | 1 (≈ 2.32 µM) | 2 (≈ 4.64 µM) | 2 (≈ 4.64 µM) |  |  |  | 
15 | N#Cc1ccc(-c2ccc3c(c2)OC[C@H]2[C@H](Cn4ccnn4)OC(=O)N32)cn1 | 1 (≈ 2.67 µM) | 0.25 (≈ 0.668 µM) | 0.25 (≈ 0.668 µM) | 0.25 (≈ 0.668 µM) | 0.25 (≈ 0.668 µM) | 0.25 (≈ 0.668 µM) | 4 | 4 | 4 | 4
16 | Cn1nnnc1-c1ccc(-c2ccc3c(c2)OC[C@H]2[C@H](Cn4ccnn4)OC(=O)N32)cn1 | 4 (≈ 9.27 µM) | 2 (≈ 4.64 µM) | 1 (≈ 2.32 µM) | 1 (≈ 2.32 µM) | 1 (≈ 2.32 µM) | 2 (≈ 4.64 µM) |  |  |  | 
17 | Cn1nnc(-c2ccc(-c3ccc4c(c3)OC[C@H]3[C@H](Cn5ccnn5)OC(=O)N43)cn2)n1 | 4 (≈ 9.27 µM) | 1 (≈ 2.32 µM) | 2 (≈ 4.64 µM) | 1 (≈ 2.32 µM) | 2 (≈ 4.64 µM) | 2 (≈ 4.64 µM) |  |  |  | 
18 | Cc1nc(-c2ccc(-c3ccc4c(c3)OC[C@H]3[C@H](Cn5ccnn5)OC(=O)N43)cn2)no1 | 8 (≈ 18.5 µM) | 1 (≈ 2.32 µM) | 4 (≈ 9.27 µM) | 2 (≈ 4.64 µM) | 2 (≈ 4.64 µM) | 2 (≈ 4.64 µM) |  |  |  | 
19 | O=C1O[C@@H](Cn2ccnn2)[C@@H]2COc3cc(-c4ccc(-n5cc(CO)oc5=O)nc4)ccc3N12 | 1 (≈ 2.16 µM) | 0.5 (≈ 1.08 µM) | 1 (≈ 2.16 µM) | 0.5 (≈ 1.08 µM) | 1 (≈ 2.16 µM) | 0.5 (≈ 1.08 µM) |  |  |  | 
20 | CC(=O)NC[C@H]1CN(c2ccc(N3CCOCC3)c(F)c2)C(=O)O1 [LINEZOLID] |  |  | 1 (≈ 2.96 µM) | 1 (≈ 2.96 µM) | 1 (≈ 2.96 µM) | 1 (≈ 2.96 µM) |  |  |  | 
